In patent publication US20250242017A1, “HISTAMINE AND HRH1 SIGNALING ACTIVITY AS BIOMARKERS AND ASSOCIATED METHODS” (Board of Regents, The University of Texas System, priority 2022, published 2025):

How the values were obtained:
CT26 tumors [1] = assay: CT26 colorectal carcinoma model; details: WT mice
Description: Tumor inductions and treatment experiments. […] For the CT26 model, 2×10^5 CT26 cells were subcutaneously injected into the back of BALB/c mice. […] Treatments were given as single agents or in combination, with the following regimen for each drug. […] Treatments were initiated on day 5 after tumor inoculation for the entire duration of the experiment. […] Anti-VISTA antibody (clone 13F3, Bio X Cell, 300 mg/mouse) was injected subcutaneously every day for 10 days starting on day 7, followed by continuous injection every 2 days for the rest of the duration of the experiment (Le Mercier et al., 2014). […] Tumor size was measured by calipers every second or third day when tumors were palpable, and the volume was calculated using the formula V=as (width×width×length)/2.

[2] = tested on: OVA-transduced EO771 tumor cells; assay: In vitro T cell killing assay (OT-I); assay type: cell-based, mouse; details: in presence of FEXO-treated macrophages
Description: In vitro T cell killing assays. Ovalbumin (OVA)-expressing EO771 cells alone or co-cultured with macrophages at a ratio of 1:2 were plated into 12-well plates. The following day, OT-I T cells pre-activated by OVA257-264 were added to the plates at the indicated ratio. After co-culture for another 48 hours, the tumor cells were harvested and counted to determine T cell killing ability.

4T1 tumors = assay: 4T1 mammary tumor model; assay type: in vivo, mouse
Source text: (§1) Tumor inductions and treatment experiments.
(§2) Isolation of tumor-infiltrating cells.
(§3) Flow cytometry staining and analysis.

CT26 tumors [3] = assay: CT26 tumor model with or without OVA-induced allergic airway disease; assay type: in vivo, mouse
Source text: as §1, §2, §3

EO771 tumors = tested on: EO771 tumors
Source text: as §1, §2, §3

B16-GM tumors = assay: B16-GM melanoma model
Description: Tumor inductions and treatment experiments. […] For LLC and B16-GM models, 2×10^5 tumor cells were subcutaneously injected into the back of C57BL/6 mice. […] Treatments were given as single agents or in combination, with the following regimen for each drug. […] Treatments were initiated on day 5 after tumor inoculation for the entire duration of the experiment. […] Anti-VISTA antibody (clone 13F3, Bio X Cell, 300 mg/mouse) was injected subcutaneously every day for 10 days starting on day 7, followed by continuous injection every 2 days for the rest of the duration of the experiment (Le Mercier et al., 2014). For in vivo CD8+ T cell depletion, mice were treated with 200 mg of anti-CD8 antibody every 3-4 days starting at 3 days before B16-GM tumor inoculation. […] Tumor size was measured by calipers every second or third day when tumors were palpable, and the volume was calculated using the formula V=as (width×width×length)/2.
Isolation of tumor-infiltrating cells. Mouse tumor samples were chopped with scissors and then subjected to enzymatic digestion with 2 mg/ml collagenase A (Roche) in DMEM for 1 hour at 37° C. Next, tissues were filtered through 70-mm filters (BD Biosciences) to achieve single-cell suspensions. After treatment with red blood cell lysis buffer for 5 minutes at room temperature, all samples were washed and re-suspended in flow cytometry buffer (phosphate-buffered saline/0.5% albumin/2 mM EDTA) or DMEM depending on further use.
Flow cytometry staining and analysis. Live single cells were sub-gated by staining with Fixable Viability Dye eFluor 450 (eBioscience) for 15 minutes at 4° C. For blocking of Fc receptors, cells were then pre-incubated with purified anti-CD16/32 antibody (clone 93, BioLegend) for 10 minutes on ice before immunostaining. After one wash with flow cytometry buffer, cells were incubated with appropriate dilutions of various combinations of the following antibodies. Primary antibodies to cell surface markers directed against CD45 (30-F11), CD3 (145-2C11), CD8a (53¬6.7), CD11b (M1/70), Gr-1 (RB6-8C5), F4/80 (BM8), CD206 (C068C2), I-A/I-E (M5/114.15.2), VISTA (MHSA), Tim-3 (B8.2C12), CD11c (N418), CD24 (M1/69), GITRL (YGL 386), ICOSL (HK5.3), 4-1BBL (TKS-1), CD276 (RTAA15), OX40L (RM134L), Galectin-9 (RG9-35), PD-L1 (10F.9G2), and PD-L2 (TY25) were from BioLegend; against HRH1 (480054), from R&D Systems; against HRH1 (AHR-001), from Alomone Labs; and against Siglec-F (E50-2440), from BD Biosciences. For intracellular staining, cells were fixed, permeabilized using Foxp3/Transcription Factor Staining Buffer Set (eBioscience), and then stained with fluorochrome-conjugated antibodies to Ki-67 (16A8) and PRF1 (S16009A) from BioLegend.

LLC tumors = assay: LLC lung carcinoma model; assay type: in vivo, mouse; details: FEXO-treated vs vehicle-treated
Source text: as §1, §2, §3

EMT6 tumors = assay: EMT6 tumor model with or without OVA-induced allergic airway disease; assay type: in vivo, mouse
Source text: as §1, §2, §3

[4] = tested on: bone marrow-derived macrophages (BMDMs); details: TCM-treated WT BMDMs; FEXO 10 mM, 48 h
Description: Generation of naïve bone marrow-derived macrophages (BMDMs). Bone marrow cells were collected from femurs obtained from 8- to 10-week-old C57BL/6 or BALB/c mice. After red blood cell lysis, bone marrow cells were seeded at a density of 5×10^6 cells/150×15 mm Petri dish and cultured at 37° C. in complete Dulbecco modified Eagle medium (DMEM) containing 20% L929 cell-conditioned medium, providing macrophage colony-stimulating factor. Macrophages were ready for use on day 7 following a fresh medium change on day 4.
Macrophage polarization and stimulation. To polarize macrophages toward an M1-like phenotype, we stimulated PBMC-derived macrophages or BMDMs with IFN-g (20 ng/ml, PeproTech) for 48 hours. To induce an M2-like phenotype, we treated THP-1-derived macrophages or BMDMs with IL-4 (20 ng/mL, PeproTech) for 48 hours. […] To stimulate macrophages with tumor cell-derived conditioned medium (TCM), we cultured BMDMs with complete medium containing 50% TCM (volume).
Flow cytometry staining and analysis. Live single cells were sub-gated by staining with Fixable Viability Dye eFluor 450 (eBioscience) for 15 minutes at 4° C. For blocking of Fc receptors, cells were then pre-incubated with purified anti-CD16/32 antibody (clone 93, BioLegend) for 10 minutes on ice before immunostaining. […]

macrophages = assay: Intracellular calcium measurement (Fluo-Forte); assay type: cell-based, mouse; details: after histamine or TCM treatment
Description: Intracellular calcium measurement. Intracellular Ca2+ was determined using the Fluo-Forte calcium assay kit (Enzo Life Sciences) according to the manufacturer's instructions. Fluorescence was measured using a BD FACSCanto II Flow Cytometer.

CD8+ T cells = assay: In vitro co-culture of macrophages with T cells; assay type: cell-based, mouse
Description: In vitro co-culture with T cells. Spleens from wild-type C57BL/6 or BALB/c mice were harvested and filtered through a […] cell strainer to generate a single-cell suspension. After red blood cell lysis, splenocytes were counted and plated in complete Roswell Park Memorial Institute 1640 medium supplemented with […] b-mercaptoethanol and 10 mM HEPES onto 12-well plates coated with […] anti-CD3 (clone 145-2C11, BioLegend) and […] anti-CD28 (clone 37N, BioLegend) antibodies. Spleen T cells were activated for 48 hours before co-culture with macrophages. To educate the macrophages, we co-cultured naïve BMDMs with tumor cells at a ratio of 1:1 or with tumor cell-derived conditioned medium for 48 hours. Macrophages were seeded with activated T cells at a ratio of 5:1. After co-culture for another 24 or 48 hours, T cells were collected for flow cytometry analysis.
as §3

[5] = FEXO-treated WT mice vs controls
[6] = FEXO-treated vs vehicle-treated WT mice
[7] = PD-L1-/- mice treated with FEXO

CC(C)(C(=O)O)c1ccc(C(O)CCCN2CCC(C(O)(c3ccccc3)c3ccccc3)CC2)cc1 (centres unmarked) [FEXO, fexofenadine]
CT26 tumor growth (CT26 tumors [1]): delayed tumor growth
OT-I cell-mediated killing of OVA-transduced EO771 tumor cells [2]: increased ovalbumin (OVA)-specific OT-I cell-mediated killing
VISTA expression on alveolar macrophages from lung metastases (4T1 tumors; FEXO-treated WT mice bearing 4T1 tumor vs controls): downregulated
VISTA on TAMs (4T1 tumors; FEXO-treated vs vehicle-treated): Decreased VISTA on TAMs
allergy-increased CT26 tumor growth (CT26 tumors [3]; OVA-allergic BALB/c mice): largely blocked by FEXO treatment
sensitivity of tumors to ICB therapy with FEXO treatment (CT26 tumors [3]; allergic mice, ICB+FEXO): largely restored sensitivity
VISTA expression on TAMs (EO771 tumors; [5]): Reduced VISTA expression
numbers of IFN-g+ and PRF1+ CD8+ T cells (EO771 tumors; [6]): increased numbers
tumor growth (EO771 tumors; [6]): reduced tumor growth
survival (EO771 tumors; [7]): dramatically prolonged survival
tumor inhibition (EO771 tumors; [7]): most effective tumor inhibition
VISTA expression on TAMs (B16-GM tumors; [5]): Reduced VISTA expression
inhibition of B16-GM tumor growth under CD8+ T cell depletion (B16-GM tumors; FEXO-treated WT mice, anti-CD8 antibodies): blocked by depleting CD8+ T cells
numbers of IFN-g+ and PRF1+ CD8+ T cells (B16-GM tumors; [6]): increased numbers
tumor growth (B16-GM tumors; [6]): reduced tumor growth
B16-GM lung metastases (B16-GM tumors; after surgical removal of primary melanomas at 100 mm3, FEXO vs vehicle): inhibited
VISTA on TAMs (LLC tumors): Decreased VISTA on TAMs
allergy-accelerated EMT6 tumor growth (EMT6 tumors; OVA-allergic BALB/c mice): largely blocked by FEXO treatment
sensitivity of tumors to ICB therapy with FEXO treatment (EMT6 tumors; allergic mice, ICB+FEXO): largely restored sensitivity
M1-M2 polarization status (MHCII, CD206) [4]: polarized macrophages toward an M1-like phenotype
intracellular free Ca2+ levels (macrophages): higher in WT macrophages than in HRH1−/− macrophages and FEXO-treated WT macrophages
T cell activation/killing (CD8+ T cells; FEXO treatment of HRH1-/- macrophages vs vehicle-treated HRH1-/- macrophages): did not increase
TAM-mediated T cell suppression (T cell proliferation, IFN-g, PRF1) (CD8+ T cells; FEXO-treated macrophages cultured with WT splenic T cells): abrogated TAM-mediated T cell suppression
